Assay results published in patent US4091006A, “Esters of 3-hydroxyindone compounds” (priority 1975, dated 1978).

These molecules were tested on egg of the two-spotted mite (assay: Mite Ovicide Test). Conditions: spray on eggs, 4 days.
Format: in vivo, Tetranychus urticae (Koch)
Set-up: key to Mite Ova rating: 1: no mortality; 3: an approximately 50% mortality; 5: 100% mortality
Source text: (§1) The test procedures were as follows:
The plants were allowed to dry thoroughly.
(§2) Compositions were rated on the basis of percent kill with a rating of 1 indicating no mortality; 3 signifying an approximately 50% mortality and 5 indicating 100% mortality at the indicated dosage.

Compound | Mite Ova rating
Cc1cc(C)c(C2=C(OC(=O)c3cccc([N+](=O)[O-])c3)c3ccccc3C2=O)c(C)c1 [3-(3-Nitrobenzoyloxy)-2-(2',4',6'-trimethylphenyl)indone] | 5 (100% mortality)
CC(C)c1ccc(C2=C(OC(=O)C(C)(C)C)c3ccccc3C2=O)cc1 [2-(4'-isopropylphenyl)-3-(pivaloyloxy)indone] | 1
Cc1cc(C)c(C2=C(OC(=O)Oc3ccc(Cl)cc3)c3ccccc3C2=O)c(C)c1 [2-(2',4',6'-Trimethylphenyl)-3-(4-chlorophenyloxycarbonyloxy)indone] | 5 (100% mortality)
CC(=O)OC1=C(c2ccccc2Br)C(=O)c2ccccc21 [3-Acetoxy-2-(2'-bromophenyl)indone] | 5 (100% mortality)
Cc1ccc(C(=O)OC2=C(c3c(Cl)cccc3Cl)C(=O)c3ccccc32)cc1 [3-(4-Methylbenzoyloxy)-2-(2',6'-dichlorophenyl)indone] | 5 (100% mortality)
COc1ccccc1C1=C(OC(=O)C(C)(C)C)c2ccccc2C1=O [2-(2'-Methoxyphenyl)-3-(pivaloyloxy)indone] | 1
O=C(OC1=C(c2c(Cl)cccc2Cl)C(=O)c2ccccc21)c1cc(Cl)cc(Cl)c1 [3-(3,5-Dichlorobenzoyloxy)-2-(2',6'-dichlorophenyl)indone] | 5 (100% mortality)
CCCCN(CCCC)C(=O)OC1=C(c2c(C)cc(C)cc2C)C(=O)c2ccccc21 [2-(2',4',6'-Trimethylphenyl)-3-(N,N-di(butyl)carbamoyloxy)indone] | 1
Cc1cc(C)c(C2=C(OC(=O)COc3ccc(Cl)cc3Cl)c3ccccc3C2=O)c(C)c1 [2-(2',4',6'-Trimethylphenyl)-3-(2,4-dichlorophenoxyacetoxy)indone] | 5 (100% mortality)
CCCCCCCCOC(=O)OC1=C(c2c(C)cc(C)cc2C)C(=O)c2ccccc21 [2-(2',4',6'-Trimethylphenyl)-3-(octyloxycarbonyloxy)indone] | 5 (100% mortality)
O=C(OC1=C(c2c(Cl)cccc2Cl)C(=O)c2ccccc21)c1ccc(Cl)cc1 [3-(4-Chlorobenzoyloxy)-2-(2',6'-dichlorophenyl)indone] | 5 (100% mortality)
CC(C)(C)C(=O)OC1=C(c2ccccc2)C(=O)c2ccccc21 [2-Phenyl-3-(pivaloyloxy)indone] | 1
CC(C)(C)C(=O)OC1=C(c2ccccc2C(F)(F)F)C(=O)c2ccccc21 [2-(2'-Trifluoromethylphenyl)-3-pivaloyloxy indone] | 1
Cc1cc(C)c(C2=C(OC(=O)c3c(Cl)ccc(Cl)c3Cl)c3ccccc3C2=O)c(C)c1 [3-(2,3,6-Trichlorobenzoyloxy)-2-(2',4',6'-trimethylphenyl)indone] | 3 (an approximately 50% mortality)
CCCCC(CC)C(=O)OC1=C(c2cccc3ccccc23)C(=O)c2ccccc21 (stereo not drawn) [3-(2-Ethylhexanoyloxy)-2-(1-Naphthyl)indone] | 1
CCc1ccccc1C1=C(OC(=O)C(C)(C)C)c2ccccc2C1=O [2-(2'-Ethylphenyl)-3-pivaloyloxyindone] | 1
Cc1cc(C)c(C(=O)OC2=C(c3c(Cl)cccc3Cl)C(=O)c3ccccc32)c(C)c1 [3-(2,4,6-Trimethylbenzoyloxy)-2-(2',6'-dichlorophenyl)indone] | 1

These molecules were tested on adults and nymphal stages of the two-spotted mite (assay: Mite Foliage Spray Test). Conditions: 4 days.
Format: in vivo, Tetranychus urticae (Koch)
Set-up: key: 1: no mortality; 3: an approximately 50% mortality; 5: 100% mortality
Source text: as §1, §2

Compound | Mite Adult rating
Cc1cc(C)c(C2=C(OC(=O)c3cccc([N+](=O)[O-])c3)c3ccccc3C2=O)c(C)c1 [3-(3-Nitrobenzoyloxy)-2-(2',4',6'-trimethylphenyl)indone] | 5 (100% mortality)
CC(C)c1ccc(C2=C(OC(=O)C(C)(C)C)c3ccccc3C2=O)cc1 [2-(4'-isopropylphenyl)-3-(pivaloyloxy)indone] | 1
Cc1cc(C)c(C2=C(OC(=O)Oc3ccc(Cl)cc3)c3ccccc3C2=O)c(C)c1 [2-(2',4',6'-Trimethylphenyl)-3-(4-chlorophenyloxycarbonyloxy)indone] | 5 (100% mortality)
CC(=O)OC1=C(c2ccccc2Br)C(=O)c2ccccc21 [3-Acetoxy-2-(2'-bromophenyl)indone] | 5 (100% mortality)
Cc1ccc(C(=O)OC2=C(c3c(Cl)cccc3Cl)C(=O)c3ccccc32)cc1 [3-(4-Methylbenzoyloxy)-2-(2',6'-dichlorophenyl)indone] | 5 (100% mortality)
COc1ccccc1C1=C(OC(=O)C(C)(C)C)c2ccccc2C1=O [2-(2'-Methoxyphenyl)-3-(pivaloyloxy)indone] | 1
O=C(OC1=C(c2c(Cl)cccc2Cl)C(=O)c2ccccc21)c1cc(Cl)cc(Cl)c1 [3-(3,5-Dichlorobenzoyloxy)-2-(2',6'-dichlorophenyl)indone] | 5 (100% mortality)
CCCCN(CCCC)C(=O)OC1=C(c2c(C)cc(C)cc2C)C(=O)c2ccccc21 [2-(2',4',6'-Trimethylphenyl)-3-(N,N-di(butyl)carbamoyloxy)indone] | 3 (an approximately 50% mortality)
Cc1cc(C)c(C2=C(OC(=O)COc3ccc(Cl)cc3Cl)c3ccccc3C2=O)c(C)c1 [2-(2',4',6'-Trimethylphenyl)-3-(2,4-dichlorophenoxyacetoxy)indone] | 5 (100% mortality)
CCCCCCCCOC(=O)OC1=C(c2c(C)cc(C)cc2C)C(=O)c2ccccc21 [2-(2',4',6'-Trimethylphenyl)-3-(octyloxycarbonyloxy)indone] | 5 (100% mortality)
O=C(OC1=C(c2c(Cl)cccc2Cl)C(=O)c2ccccc21)c1ccc(Cl)cc1 [3-(4-Chlorobenzoyloxy)-2-(2',6'-dichlorophenyl)indone] | 5 (100% mortality)
CC(C)(C)C(=O)OC1=C(c2ccccc2)C(=O)c2ccccc21 [2-Phenyl-3-(pivaloyloxy)indone] | 1
CC(C)(C)C(=O)OC1=C(c2ccccc2C(F)(F)F)C(=O)c2ccccc21 [2-(2'-Trifluoromethylphenyl)-3-pivaloyloxy indone] | 1
Cc1cc(C)c(C2=C(OC(=O)c3c(Cl)ccc(Cl)c3Cl)c3ccccc3C2=O)c(C)c1 [3-(2,3,6-Trichlorobenzoyloxy)-2-(2',4',6'-trimethylphenyl)indone] | 1
CCCCC(CC)C(=O)OC1=C(c2cccc3ccccc23)C(=O)c2ccccc21 (stereo not drawn) [3-(2-Ethylhexanoyloxy)-2-(1-Naphthyl)indone] | 1
CCc1ccccc1C1=C(OC(=O)C(C)(C)C)c2ccccc2C1=O [2-(2'-Ethylphenyl)-3-pivaloyloxyindone] | 1
Cc1cc(C)c(C(=O)OC2=C(c3c(Cl)cccc3Cl)C(=O)c3ccccc32)c(C)c1 [3-(2,4,6-Trimethylbenzoyloxy)-2-(2',6'-dichlorophenyl)indone] | 1

These molecules were tested on Perennial rye grass, crabgrass, red root pigweed, mustard (assay: Preliminary Herbicide Seed Germination Test). Conditions: rating/maximum 15: 100 ppm only, crabgrass omitted, each rated 1 (no injury) to 5 (no seedlings emerged).

Compound | Herbicide (total preemergence rating)
Cc1cc(C)c(C(=O)OC2=C(c3c(Cl)cccc3Cl)C(=O)c3ccccc32)c(C)c1 [3-(2,4,6-Trimethylbenzoyloxy)-2-(2',6'-dichlorophenyl)indone] | 6/15

Same assay, conditions: rating/maximum 20: 100 ppm only, four species, each rated 1 (no injury) to 5 (no seedlings emerged)

Compound | Herbicide (total preemergence rating)
CC(C)c1ccc(C2=C(OC(=O)C(C)(C)C)c3ccccc3C2=O)cc1 [2-(4'-isopropylphenyl)-3-(pivaloyloxy)indone] | 4/20
Cc1cc(C)c(C2=C(OC(=O)Oc3ccc(Cl)cc3)c3ccccc3C2=O)c(C)c1 [2-(2',4',6'-Trimethylphenyl)-3-(4-chlorophenyloxycarbonyloxy)indone] | 19/20
CCCCN(CCCC)C(=O)OC1=C(c2c(C)cc(C)cc2C)C(=O)c2ccccc21 [2-(2',4',6'-Trimethylphenyl)-3-(N,N-di(butyl)carbamoyloxy)indone] | 10/20
Cc1cc(C)c(C2=C(OC(=O)COc3ccc(Cl)cc3Cl)c3ccccc3C2=O)c(C)c1 [2-(2',4',6'-Trimethylphenyl)-3-(2,4-dichlorophenoxyacetoxy)indone] | 20/20
CCCCCCCCOC(=O)OC1=C(c2c(C)cc(C)cc2C)C(=O)c2ccccc21 [2-(2',4',6'-Trimethylphenyl)-3-(octyloxycarbonyloxy)indone] | 16/20
CC(C)(C)C(=O)OC1=C(c2ccccc2C(F)(F)F)C(=O)c2ccccc21 [2-(2'-Trifluoromethylphenyl)-3-pivaloyloxy indone] | 4/20
CCCCC(CC)C(=O)OC1=C(c2cccc3ccccc23)C(=O)c2ccccc21 (stereo not drawn) [3-(2-Ethylhexanoyloxy)-2-(1-Naphthyl)indone] | 14/20
CCc1ccccc1C1=C(OC(=O)C(C)(C)C)c2ccccc2C1=O [2-(2'-Ethylphenyl)-3-pivaloyloxyindone] | 4/20

Same assay, conditions: rating/maximum 30: 100 and 1000 ppm, crabgrass omitted, each rated 1 (no injury) to 5 (no seedlings emerged)

Compound | Herbicide (total preemergence rating)
Cc1cc(C)c(C2=C(OC(=O)c3cccc([N+](=O)[O-])c3)c3ccccc3C2=O)c(C)c1 [3-(3-Nitrobenzoyloxy)-2-(2',4',6'-trimethylphenyl)indone] | 28/30
Cc1ccc(C(=O)OC2=C(c3c(Cl)cccc3Cl)C(=O)c3ccccc32)cc1 [3-(4-Methylbenzoyloxy)-2-(2',6'-dichlorophenyl)indone] | 22/30
O=C(OC1=C(c2c(Cl)cccc2Cl)C(=O)c2ccccc21)c1cc(Cl)cc(Cl)c1 [3-(3,5-Dichlorobenzoyloxy)-2-(2',6'-dichlorophenyl)indone] | 24/30
O=C(OC1=C(c2c(Cl)cccc2Cl)C(=O)c2ccccc21)c1ccc(Cl)cc1 [3-(4-Chlorobenzoyloxy)-2-(2',6'-dichlorophenyl)indone] | 23/30

Same assay, conditions: rating/maximum 40: 100 and 1000 ppm, four species, each rated 1 (no injury) to 5 (no seedlings emerged), 10-12 days

Compound | Herbicide (total preemergence rating)
CC(=O)OC1=C(c2ccccc2Br)C(=O)c2ccccc21 [3-Acetoxy-2-(2'-bromophenyl)indone] | 19/40
COc1ccccc1C1=C(OC(=O)C(C)(C)C)c2ccccc2C1=O [2-(2'-Methoxyphenyl)-3-(pivaloyloxy)indone] | 8/40
CC(C)(C)C(=O)OC1=C(c2ccccc2)C(=O)c2ccccc21 [2-Phenyl-3-(pivaloyloxy)indone] | 8/40
Cc1cc(C)c(C2=C(OC(=O)c3c(Cl)ccc(Cl)c3Cl)c3ccccc3C2=O)c(C)c1 [3-(2,3,6-Trichlorobenzoyloxy)-2-(2',4',6'-trimethylphenyl)indone] | 21/40
